The assay can be described thus: Inhibition of Acetyl-CoA acetyltransferase (unknown origin).
The compound `Cc1ccccc1CNC1=Nc2ccccc2NC12CCNCC2` showed an IC50 of 25 nM. Under `Clc1ccccc1CNC1=Nc2ccccc2NC12CCNCC2` stands 22 nM.

On to `Clc1cccc(CNC2=Nc3ccccc3NC23CCNCC3)c1`, for which the IC50 is 22 nM. The figure for `Cc1ccc(CNC2=Nc3ccccc3NC23CCCCC3)cc1` is 269 nM; for `CC1CCC2(CC1)Nc1ccccc1N=C2NCc1ccccc1Cl` (stereo unspecified) it is 171 nM; for `CC1CCC2(CC1)NC=CN=C2NCc1ccccc1Cl` (stereo unspecified) it is over 1000 nM.

As usually defined, the IC50 is the concentration that inhibits the measured activity by half. The low end stands for inhibition by little substance, the high end for a need for much substance.
